Assay results published in ChEMBL document CHEMBL3399920, “Microwave-assisted synthesis, characterization and cytotoxic studies of novel estrogen receptor α ligands towards human breast cancer cells” (Bioorg Med Chem Lett, 2015).

Assays:
[1] = system: HepG2; experiment: Cytotoxicity against human HepG2 cells after 48 hrs by MTT assay; assay type: functional, cell-based; conditions: HepG2, 48 h
[2] = system: MCF7; experiment: Cytotoxicity against human MCF7 cells after 48 hrs by MTT assay; assay type: functional, cell-based; conditions: MCF7, 48 h
[3] = system: MDA-MB-231; experiment: Cytotoxicity against human MDA-MB-231 cells after 48 hrs by MTT assay; assay type: functional, cell-based; conditions: MDA-MB-231, 48 h
[4] = Cytotoxicity against human MCF10A cells after 72 hrs by MTT assay; assay type: cell-based; conditions: MCF-10A
[5] = system: BT-549; experiment: Cytotoxicity against human BT549 cells after 48 hrs by MTT assay; assay type: functional, cell-based; conditions: BT-549, 48 h

| SMILES | IC50 [1] | IC50 [2] | IC50 [3] | IC50 [4] | IC50 [5] |
| --- | --- | --- | --- | --- | --- |
| Oc1ccccc1-c1ccc2ccccc2n1 | > 50 µM | > 50 µM | – | – | – |
| Cc1ccc2nc(-c3ccccc3Br)ccc2c1 | > 50 µM | > 50 µM | – | – | – |
| Clc1ccc(-c2ccc3ccccc3n2)c(Cl)c1 | 31.6 µM | 25 µM | > 100 µM | > 100 µM | > 100 µM |
| Nc1ccc(-c2ccc3ccc(Cl)cc3n2)cc1 | 11 µM | 6 µM | > 100 µM | > 100 µM | > 100 µM |
| Cc1ccc2nc(-c3ccc(Cl)cc3Cl)ccc2c1 | > 50 µM | > 50 µM | – | – | – |
| Brc1ccc(-c2ccc3ccccc3n2)cc1 | 9 µM | 12 µM | > 100 µM | 60.3 µM | > 100 µM |
| Cc1ccc2nc(-c3ccc(N)cc3)ccc2c1 | 41 µM | 34 µM | – | – | – |
| Cc1ccc2nc(-c3cc(O)ccc3O)ccc2c1 | 19 µM | 28 µM | – | – | – |
| Cc1ccc2nc(-c3cccc([N+](=O)[O-])c3)ccc2c1 | 37 µM | 23 µM | > 100 µM | > 100 µM | > 100 µM |
| Cc1ccc2nc(-c3ccccc3)ccc2c1 | > 50 µM | > 50 µM | – | – | – |
